Laboratory results as given in the supplement of paper PMC10307832.

Tests used:
Experiment in all cases: relative viability (nuclei count vs DMSO), 5 days (fraction); higher = more cells survive
NCI-H1299 = tested on: NCI-H1299
Method in brief: (§1)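 One day after seeding in 1536-well plates, lung cancer cell lines were dosed by pin tool. Dosing was either single-drug or a fixed anchor-drug dose plus five library-drug doses (not always all listed) in √10 steps. After 5 days, nuclei were stained in one fix-and-stain step and counted on 4× images, and relative viability is the nuclei count of treated wells over that of vehicle wells, given as the median of duplicate plates.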

NCI-H596 = tested on: NCI-H596
Method in brief: as §1

NCI-H1734 = tested on: NCI-H1734
Method in brief: as §1

NCI-H2405 = tested on: NCI-H2405
Method in brief: as §1

EBC-1 = tested on: EBC-1
Method in brief: as §1

A549 = tested on: A549
Method in brief: as §1

NCI-H2085 = tested on: NCI-H2085
Method in brief: as §1

CAL-12T = tested on: CAL-12T
Method in brief: as §1

Calu-6 = tested on: Calu-6
Method in brief: as §1

IA-LM = tested on: IA-LM
Method in brief: as §1

HCC-366 = tested on: HCC-366
Method in brief: as §1

NCI-H1703 = tested on: NCI-H1703
Method in brief: as §1

NCI-H1993 = tested on: NCI-H1993
Method in brief: as §1

For `COCC1(CO)C(=O)C2CCN1CC2` (stereo not given) [PRIMA-1MET] + CS(=O)(=O)N1CCN(Cc2cc3nc(-c4cccc5[nH]ncc45)nc(N4CCOCC4)c3s2)CC1 [Pictilisib] (partner 1 µM), the relative viability (NCI-H1299; first compound 0.2 µM) was 0.956, the relative viability (NCI-H1299; first compound 0.6325 µM) was 0.782 and the relative viability (NCI-H1299; first compound 2 µM) was 0.345. For the same molecule, the relative viability (NCI-H1299; first compound 6.325 µM) was 0.808, the relative viability (NCI-H1299; first compound 20 µM) was 0.0251 and the relative viability (NCI-H596; first compound 0.2 µM) was 0.406. For the same molecule, the relative viability (NCI-H596; first compound 0.6325 µM) was 0.389, the relative viability (NCI-H596; first compound 2 µM) was 0.335 and the relative viability (NCI-H596; first compound 6.325 µM) was 0.379. It also gave a relative viability (NCI-H596; first compound 20 µM) of 0.368, a relative viability (NCI-H1734; first compound 0.2 µM) of 0.446 and a relative viability (NCI-H1734; first compound 0.6325 µM) of 0.465. For the same molecule, the relative viability (NCI-H1734; first compound 2 µM) was 0.408, the relative viability (NCI-H1734; first compound 6.325 µM) was 0.386 and the relative viability (NCI-H1734; first compound 20 µM) was 0.0877. The relative viability (NCI-H2405; first compound 0.2 µM) was 0.278, the relative viability (NCI-H2405; first compound 0.6325 µM) was 0.497 and the relative viability (NCI-H2405; first compound 6.325 µM) was 0.359. For the same molecule, the relative viability (NCI-H2405; first compound 20 µM) was 0.0865, the relative viability (EBC-1; first compound 0.2 µM) was 0.414 and the relative viability (EBC-1; first compound 0.6325 µM) was 0.381. The relative viability (EBC-1; first compound 2 µM) was 0.402, the relative viability (EBC-1; first compound 6.325 µM) was 0.434 and the relative viability (EBC-1; first compound 20 µM) was 0.12. For the same molecule, the relative viability (A549; first compound 0.2 µM) was 0.581, the relative viability (A549; first compound 0.6325 µM) was 0.403 and the relative viability (A549; first compound 2 µM) was 0.497. It also gave a relative viability (A549; first compound 6.325 µM) of 0.543, a relative viability (A549; first compound 20 µM) of 0.421 and a relative viability (NCI-H2085; first compound 0.2 µM) of 0.44. The relative viability (NCI-H2085; first compound 0.6325 µM) was 0.419, the relative viability (NCI-H2085; first compound 2 µM) was 0.33 and the relative viability (NCI-H2085; first compound 6.325 µM) was 0.4. The relative viability (NCI-H2085; first compound 20 µM) was 0.359, the relative viability (CAL-12T; first compound 0.2 µM) was 0.486 and the relative viability (CAL-12T; first compound 0.6325 µM) was 0.421. For the same molecule, the relative viability (CAL-12T; first compound 2 µM) was 0.315, the relative viability (CAL-12T; first compound 6.325 µM) was 0.332 and the relative viability (CAL-12T; first compound 20 µM) was 0.0828. It also gave a relative viability (Calu-6; first compound 0.2 µM) of 0.945, a relative viability (Calu-6; first compound 0.6325 µM) of 0.873 and a relative viability (Calu-6; first compound 2 µM) of 1.07. It also gave a relative viability (Calu-6; first compound 6.325 µM) of 0.917, a relative viability (Calu-6; first compound 20 µM) of 0.563 and a relative viability (IA-LM; first compound 0.2 µM) of 0.476. For the same molecule, the relative viability (IA-LM; first compound 0.6325 µM) was 0.253, the relative viability (IA-LM; first compound 2 µM) was 0.355 and the relative viability (IA-LM; first compound 6.325 µM) was 0.404. It also gave a relative viability (IA-LM; first compound 20 µM) of 0.326, a relative viability (HCC-366; first compound 0.2 µM) of 0.204 and a relative viability (HCC-366; first compound 0.6325 µM) of 0.118. The relative viability (HCC-366; first compound 6.325 µM) was 0.123, the relative viability (HCC-366; first compound 20 µM) was 0.0846 and the relative viability (NCI-H1703; first compound 0.2 µM) was 0.275. It also gave a relative viability (NCI-H1703; first compound 2 µM) of 0.255, a relative viability (NCI-H1703; first compound 6.325 µM) of 0.293 and a relative viability (NCI-H1703; first compound 20 µM) of 0.0333. The relative viability (NCI-H1993; first compound 0.2 µM) was 0.949, the relative viability (NCI-H1993; first compound 0.6325 µM) was 0.797 and the relative viability (NCI-H1993; first compound 2 µM) was 0.732. For the same molecule, the relative viability (NCI-H1993; first compound 6.325 µM) was 0.873 and the relative viability (NCI-H1993; first compound 20 µM) was 0.854.
With `COCC1(CO)C(=O)C2CCN1CC2` (stereo not given) [PRIMA-1MET] + C[C@@H](Oc1cc(-c2cnn(C3CCNCC3)c2)cnc1N)c1c(Cl)ccc(F)c1Cl [Crizotinib] (partner 1 µM) the relative viability (NCI-H1299; first compound 0.2 µM) was 0.988, the relative viability (NCI-H1299; first compound 0.6325 µM) was 0.728 and the relative viability (NCI-H1299; first compound 2 µM) was 1. It also gave a relative viability (NCI-H1299; first compound 6.325 µM) of 0.978, a relative viability (NCI-H1299; first compound 20 µM) of 0.955 and a relative viability (NCI-H596; first compound 0.2 µM) of 1.08. It also gave a relative viability (NCI-H596; first compound 0.6325 µM) of 0.962, a relative viability (NCI-H596; first compound 2 µM) of 0.863 and a relative viability (NCI-H596; first compound 6.325 µM) of 1.04. It also gave a relative viability (NCI-H596; first compound 20 µM) of 0.174, a relative viability (NCI-H1734; first compound 0.2 µM) of 0.696 and a relative viability (NCI-H1734; first compound 0.6325 µM) of 0.573. It also gave a relative viability (NCI-H1734; first compound 2 µM) of 0.614, a relative viability (NCI-H1734; first compound 6.325 µM) of 0.677 and a relative viability (NCI-H1734; first compound 20 µM) of 0.171. The relative viability (NCI-H2405; first compound 0.2 µM) was 0.679, the relative viability (NCI-H2405; first compound 0.6325 µM) was 0.847 and the relative viability (NCI-H2405; first compound 6.325 µM) was 0.818. The relative viability (NCI-H2405; first compound 20 µM) was 0.452, the relative viability (EBC-1; first compound 0.2 µM) was 0.19 and the relative viability (EBC-1; first compound 0.6325 µM) was 0.174. The relative viability (EBC-1; first compound 2 µM) was 0.197, the relative viability (EBC-1; first compound 6.325 µM) was 0.192 and the relative viability (EBC-1; first compound 20 µM) was 0.212. The relative viability (A549; first compound 0.2 µM) was 0.961, the relative viability (A549; first compound 0.6325 µM) was 0.577 and the relative viability (A549; first compound 2 µM) was 0.813. The relative viability (A549; first compound 6.325 µM) was 0.817, the relative viability (A549; first compound 20 µM) was 0.746 and the relative viability (NCI-H2085; first compound 0.2 µM) was 0.886. For the same molecule, the relative viability (NCI-H2085; first compound 0.6325 µM) was 0.747, the relative viability (NCI-H2085; first compound 2 µM) was 0.692 and the relative viability (NCI-H2085; first compound 6.325 µM) was 0.518. For the same molecule, the relative viability (NCI-H2085; first compound 20 µM) was 0.155, the relative viability (CAL-12T; first compound 0.2 µM) was 0.788 and the relative viability (CAL-12T; first compound 0.6325 µM) was 0.834. The relative viability (CAL-12T; first compound 2 µM) was 0.687, the relative viability (CAL-12T; first compound 6.325 µM) was 0.661 and the relative viability (CAL-12T; first compound 20 µM) was 0.283. It also gave a relative viability (Calu-6; first compound 0.2 µM) of 0.795, a relative viability (Calu-6; first compound 0.6325 µM) of 0.901 and a relative viability (Calu-6; first compound 2 µM) of 0.825. For the same molecule, the relative viability (Calu-6; first compound 6.325 µM) was 0.886, the relative viability (Calu-6; first compound 20 µM) was 0.627 and the relative viability (IA-LM; first compound 0.2 µM) was 0.856. The relative viability (IA-LM; first compound 0.6325 µM) was 0.868, the relative viability (IA-LM; first compound 2 µM) was 0.955 and the relative viability (IA-LM; first compound 6.325 µM) was 0.851. The relative viability (IA-LM; first compound 20 µM) was 0.838, the relative viability (HCC-366; first compound 0.2 µM) was 0.702 and the relative viability (HCC-366; first compound 0.6325 µM) was 0.515. It also gave a relative viability (HCC-366; first compound 6.325 µM) of 0.506, a relative viability (HCC-366; first compound 20 µM) of 0.009 and a relative viability (NCI-H1703; first compound 0.2 µM) of 0.749. For the same molecule, the relative viability (NCI-H1703; first compound 0.6325 µM) was 0.861, the relative viability (NCI-H1703; first compound 2 µM) was 0.784 and the relative viability (NCI-H1703; first compound 6.325 µM) was 0.377. For the same molecule, the relative viability (NCI-H1703; first compound 20 µM) was 0.0587, the relative viability (NCI-H1993; first compound 0.2 µM) was 1.14 and the relative viability (NCI-H1993; first compound 0.6325 µM) was 0.892. It also gave a relative viability (NCI-H1993; first compound 2 µM) of 0.738, a relative viability (NCI-H1993; first compound 6.325 µM) of 0.883 and a relative viability (NCI-H1993; first compound 20 µM) of 0.822.
